Laboratory results from US20230287217A1, “Zwitterionic Cell-Permeant and Water-Soluble Rhodamine Dyes for Quantitative Imaging Applications” (OREGON HEALTH & SCIENCE UNIVERSITY, priority 2020, published 2023).

Assay: UV-Vis absorption and fluorescence spectroscopy (spectral properties in aqueous media / PBS buffer)
Format: physicochemical
Set-up: Brightness: unit not given here
Details: aqueous media; for FWHMabs (nm): absorption band width; for λabs (nm): absorption maximum; for FWHem (nm): emission band width; for λem (nm): emission maximum; for ε (M^-1 cm-1): extinction coefficient from Beer's Law plots; for ϕ: relative quantum yield, TMR and SiTMR as reference
Protocol: UV-Vis and fluorescence spectra were collected on a SpectraMax M5 spectrometer with a Microplate reader (Molecular Devices, Sunnyvale, CA). All absorbance spectra were reference corrected. Extinction coefficient was calculated from Beer’s Law plots of absorbance versus concentration. Relative quantum yields are reported using TMR and SiTMR as reference.

## C#Cc1cccc(Nc2ncnc3ccc(NC(=O)CCNC(=O)c4ccc(C(=O)[O-])c(-c5c6ccc(=[N+](C)C)cc-6oc6cc(N(C)C)ccc56)c4)cc23)c1 [TMRErl(T)]
  Brightness: 21
  Stokes Shift (nm): 24 nm
  FWHMabs (nm): 39 nm
  λabs (nm): 563 nm
  FWHem (nm): 42 nm
  λem (nm): 587 nm
  ε (M^-1 cm-1): 33,100 M^-1 cm-1
  ϕ: 0.62

## Cc1cc(C(=O)NCCCn2cc(-c3cccc(Nc4ncnc5ccccc45)c3)nn2)ccc1-c1c2cc/c(=[N+](/C)CCCS(=O)(=O)[O-])cc-2oc2cc(N(C)C)ccc12 [OF550Erl(UnT), (E)((6-(dimethylamino)-9-(2-methyl-4-((3-(4-(3-(quinazolin-4-ylamino)phenyl)-1H-1,2,3-triazol-1-yl)propyl)carbamoyl)phenyl)-3H-xanthenylidene)(methyl)ammonio)propane-1-sulfonate]
  Brightness: 35
  Stokes Shift (nm): 25 nm
  FWHMabs (nm): 35 nm
  λabs (nm): 560 nm
  FWHem (nm): 44 nm
  λem (nm): 585 nm
  ε (M^-1 cm-1): 50,200 M^-1 cm-1
  ϕ: 0.69

## Cc1cc(C(=O)O)ccc1-c1c2cc/c(=[N+](/C)CCCS(=O)(=O)[O-])cc-2oc2cc(N(C)C)ccc12 [OF550COOH, (E)((9-(4-carboxy-2-methylphenyl)-6-(dimethylamino)-3H-xanthenylidene)(methyl)ammonio)propane-1-sulfonate]
  Brightness: 78
  Stokes Shift (nm): 24 nm
  FWHMabs (nm): 33 nm
  λabs (nm): 554 nm
  FWHem (nm): 42 nm
  λem (nm): 578 nm
  ε (M^-1 cm-1): 112,600 M^-1 cm-1
  ϕ: 0.69

## CN(C)c1ccc2c(c1)[Si](C)(C)C1=CC(=[N+](C)C)C=CC1=C2c1cc(C(=O)O)ccc1C(=O)[O-] [SiRCOOH, 4-carboxy-2-(7-(dimethylamino)-3-(dimethyliminio)-5,5-dimethyl-3,5-dihydrodibenzo[b,e]silin-10-yl)benzoate]
  Brightness: 29
  Stokes Shift (nm): 22 nm
  FWHMabs (nm): 39 nm
  λabs (nm): 645 nm
  FWHem (nm): 42 nm
  λem (nm): 667 nm
  ε (M^-1 cm-1): 64,700 M^-1 cm-1
  ϕ: 0.45

## CN(C)c1ccc2c(c1)[Si](C)(C)C1=CC(=[N+](C)C)C=CC1=C2c1cc(C(=O)NCCCn2cc(-c3cccc(Nc4ncnc5ccccc45)c3)nn2)ccc1C(=O)[O-] [SiRErl(UnT)]
  Brightness: 5
  Stokes Shift (nm): 16 nm
  FWHMabs (nm): 38 nm
  λabs (nm): 654 nm
  FWHem (nm): 43 nm
  λem (nm): 670 nm
  ε (M^-1 cm-1): 24,100 M^-1 cm-1
  ϕ: 0.19

## CN(C)c1ccc2c(-c3cc(C(=O)O)ccc3C(=O)[O-])c3ccc(=[N+](C)C)cc-3oc2c1 [TMRCOOH, 4-carboxy-2-(6-(dimethylamino)-3-(dimethyliminio)-3H-xanthen-9-yl)benzoate]
  Brightness: 49
  Stokes Shift (nm): 26 nm
  FWHMabs (nm): 42 nm
  λabs (nm): 550 nm
  FWHem (nm): 44 nm
  λem (nm): 576 nm
  ε (M^-1 cm-1): 83,800 M^-1 cm-1
  ϕ: 0.58
